Assay results as given in patent publication US12402610B2, “Methods and compositions for modulating innate lymphoid cell pathogenic effectors” (The Broad Institute, Inc., priority 2018, dated 2025).
Entries after “also recorded” stand apart in the source; their conditions may differ.

Assays:
[1] = tested on: ear skin; assay: IL-23 subcutaneous injection psoriasis model, skin thickness measured with calipers; type: in vivo, mouse
Source text: (§1) To determine which cells are key to initiate psoriatic disease, Applicants studied a subcutaneous IL-23 injection model, which leads to increased skin thickness after five days of daily injections (FIG. 1a, FIG. 5a). First, Applicants assessed the role of different immune cell types in this model (FIG. 1b, FIG. 5b,c). […] This is also consistent with an increased number of human ILC3s recently observed in psoriatic patients^3,4. Moreover, while γδ T cells have been implicated in a longer treatment course^2,5, analyzing Tcrd^−/− mice, which lack only γδ T cells, Applicants found no evidence that they contribute to disease initiation (FIG. 1b). […] Applicants compared disease phenotype between control mice and those treated with FTY720, which blocks signaling from the S1P1 receptor, preventing egress of T cells from secondary lymphoid tissues and limiting trafficking of induced ILC2s^7,11. […] Thus, in contrast to a model of lung inflammation, in psoriasis, tissue-resident ILCs are sufficient to drive disease pathology and are critical for amplifying the response to IL-23.
(§2) Psoriasis model. The psoriasis model used in this study is based on rIL-23 subcutaneous injections. The 500 ng in 20 μl of rIL-23 (provided by Abbvie or purchased from R&D Systems [scRNAseq experiments]) was injected daily into the ear skin of anesthetized mice in 4 consecutive days. As a control 20 μl of PBS was used with the same injection intervals. For the second challenge experiment, Applicants waited 10 days, monitoring the skin thickness before repeating 4-day injection regimen. Skin thickness was measured daily with calipers. When indicated, FTY720 (1 mg/kg) was dissolved in PBS and administered i.p on day −1, 1 and 3 of the experiment. Skin tissue was collected on day 5 for histology imaging, flow cytometry analysis or cell sorting.

[2] = tested on: circulating total white blood cells; assay: Total circulatory white blood cell numbers after FTY720 treatment; type: in vivo, mouse; settings: FTY720 1 mg/kg i.p., WT and Rag1−/− mice, vs untreated
Source text: as §1
Psoriasis model. The psoriasis model used in this study is based on rIL-23 subcutaneous injections. […] Skin thickness was measured daily with calipers. […]

[3] = tested on: skin ILCs; assay: Alternative psoriasis model using topical imiquimod in IL-5 fate / IL-22 BFP / IL-17A GFP reporter mouse; type: in vivo
[4] = tested on: skin ILCs; assay: Intracellular cytokine staining of skin ILCs after IL-23 treatment; type: in vivo, mouse
Source text: (§3) Next, Applicants tested the prediction of a transition during disease of IL-5-expressing ILC2s into IL-22/IL-17A-expressing ILC3-like cells. Applicants generated an IL-5 fate reporter mouse from IL-5-cre-dTomato (Red5)^50 and Rosa26^flox-Stop-floxYFP, which Applicants then combined with IL-17A^GFP 51 and IL-22^BFP expression reporters (FIG. 4b). […] Moreover, cells that expressed ILC3 type cytokines no longer expressed IL-5 (FIG. 4d). […] Finally, Applicants also tested the model's prediction that there is a subset of skin ILCs in the psoriasis model that co-expresses the type 2 cytokine IL-13 with both of the type 3 cytokines IL-22 and IL-17A.
as §2, with “sorting. […]” for “sorting.”

[5] = tested on: skin ILCs; assay: IL-5 fate mapping with IL-17A GFP and IL-22 BFP reporters after IL-23 injection; type: in vivo, mouse
Source text: as §3
Mice. C57BL/6, Tcrd^−/− and Rosa26^flox-stop-floxYFP Ai3(RCL-EYFP) mice were purchased from the Jackson Laboratories. Rag1^−/− and Rag2^−/−IL2rg^−/− were purchased from Taconic Biosciences. IL-5 Cre, dTomato (Red5/R5) from Dr Locksley laboratory. The IL-5 fate reporter in this work was generated by crossing Red5 with Ai3(RCL-EYFP) with IL-17A^GFP 51 and IL-22^BFP generated in Applicants laboratory. In order to maximize the Cre recombination and increase the signal of Rosa26^YFP positive cells, Applicants used homozygous IL-5^dTomato, Cre. Applicants observed little to no difference in IL-23 induced skin thicknening (FIG. 8a).
Psoriasis model. […] Skin thickness was measured daily with calipers. […]

CCCCCCCCc1ccc(CCC(N)(CO)CO)cc1 [FTY720, reference compound]
psoriasis phenotype induction upon IL-23 administration (skin thickness) ([1]; FTY720-treated vs untreated controls, WT or Rag1−/− mice): no difference
increased susceptibility to a secondary challenge with IL-23 (skin thickness) ([1]; FTY720 during the primary injection): does not impact; also recorded: also observed
circulating total white blood cells [2]: blocks; also recorded: reduction

CC(C)Cn1cnc2c(N)nc3ccccc3c21 [imiquimod]
IL-22 production, compared with IL-23 injection model ([3]; topically treated over 10 days): less induced
IL-17A producing cells including exIL-5 cells ([3]; topically treated over 10 days vs untreated mice): increase

IL-23: recombinant cytokine injected subcutaneously into ear skin to induce the psoriasis model
increase in skin thickness over the treatment course ([1]; Rag1−/− mice (intact ILCs)): significant increase
increase in ear thickness ([1]; Rag2−/− Il2rg−/− double mutant (lacks all lymphocytes)): did not show any increase
skin thickening, treated versus untreated recipient mice ([1]; Rag2−/− Il2rg−/− mice with adoptively transferred sorted skin ILCs): significant skin thickening
skin thickness ([1]; WT mice, daily subcutaneous injections, vs PBS vehicle): significantly higher; also recorded: increased
time for inflammation and skin thickness to revert to near-baseline levels ([1]; after the initial injection): ≤ 10 days
phenotype after a second series of injections compared to initial response ([1]; second challenge): significantly more severe
cells expressing IL-22 and IL-17A that also co-express IL-13 ([4]; Rag1−/− mice): ~20%
cells expressing IL-22 and IL-17A that also co-express IL-13 ([4]; WT and Tcrd−/− mice): ~10%
IL-22- and IL-17A-expressing cells that were ex-IL-5 producing cells ([5]; after IL-23 injection, fate mapping of ILC2s): ~10%
number of ex-IL-5 cells producing IL-22 and IL-17A ([5]; second IL-23 challenge): further elevated
